Source: patent US11247987B2, “Inhibiting ubiquitin specific peptidase 30” (FORMA Therapeutics, Inc., priority 2017, dated 2022)

The compounds below were run against T1, human recombinant USP30 (Homo sapiens, UniProt Q70CQ3) (assay: Ubiquitin-Rhodamine 110 Assay for USP30 Activity (USP30 Inhibitor Biochemical Assay)). Details: 0.2 nM USP30, 25 nM Ub-Rh110, 30 min preincubation, 30 min at room temperature; read-out: USP30 potency range (USP30 biochemical IC50 assay, IC50 ranges).
T1 construct: purchased Boston Biochem E-582
T1 sequence (Q70CQ3 1-517): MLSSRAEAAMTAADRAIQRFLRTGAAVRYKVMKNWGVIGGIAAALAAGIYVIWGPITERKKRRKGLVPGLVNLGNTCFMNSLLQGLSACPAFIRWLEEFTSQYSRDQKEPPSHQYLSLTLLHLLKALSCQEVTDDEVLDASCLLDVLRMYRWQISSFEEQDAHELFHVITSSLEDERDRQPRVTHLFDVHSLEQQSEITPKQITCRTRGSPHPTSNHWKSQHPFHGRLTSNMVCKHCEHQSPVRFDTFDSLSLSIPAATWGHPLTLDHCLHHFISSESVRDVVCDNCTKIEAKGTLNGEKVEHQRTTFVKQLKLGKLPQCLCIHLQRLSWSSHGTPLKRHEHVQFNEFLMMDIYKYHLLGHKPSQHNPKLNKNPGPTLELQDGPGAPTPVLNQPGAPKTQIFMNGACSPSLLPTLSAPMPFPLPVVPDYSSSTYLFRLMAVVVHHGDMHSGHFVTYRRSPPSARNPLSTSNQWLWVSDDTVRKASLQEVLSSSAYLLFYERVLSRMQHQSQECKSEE
Method: Example A: Biochemical Assay: Ubiquitin-Rhodamine 110 Assay for USP30 Activity (USP30 Inhibitor Biochemical Assay)
The assay was performed in a final volume of 9 μL in assay buffer containing 20 mM Tris-HCl (pH 8.0, (1M Tris-HCl, pH 8.0 solution; Corning 46-031-CM)), 1 mM GSH (L-glutathione reduced, Sigma-Aldrich, G4251-100G), 0.03% BGG (0.22 μM filtered, Sigma, G7516-25G), and 0.01% Triton X-100 (Sigma, T9284-10L). Nanoliter quantities of 10-point, 3-fold serial dilution in DMSO were pre-dispensed into 1536 assay plates (Corning, #3724BC) for a final test concentration of 25 μM to 1.3 nM, top to lowest dose, respectively. Concentration and incubation times were optimized for the maximal signal-to-background while maintaining initial velocity conditions at a fixed substrate concentration. The final concentration of USP30 (human recombinant USP30, Boston Biochem, cat. # E-582) in the assay was 0.2 nM. […] 3 μL of 2×USP30 was added to assay plates (pre-stamped with compound), preincubated for 30 minutes and then treated with 3 μL of 2×Ub-Rh110. Plates were incubated for 30 minutes at room temperature before addition of 3 μL of stop solution (final concentration of 10 mM citric acid (Sigma, 251275-500G)). Fluorescence was read on the Envision (excitation at 485 nm and emission at 535 nm; Perkin Elmer) or on the PheraSTAR (excitation at 485 nm and emission at 535 nm; BMG Labtech).
For all assay formats data were reported as percent inhibition compared with control wells based on the following equation: % inh=1−((FLU−AveLow)/(AveHigh−AveLow)) where FLU=measured Fluorescence, AveLow=average Fluorescence of no enzyme control (n=16), and AveHigh=average Fluorescence of DMSO control (n=16). IC50 values were determined by curve fitting of the standard 4 parameter logistic fitting algorithm included in the Activity Base software package: IDBS XE Designer Model205. Data is fitted using the Levenburg Marquardt algorithm.
C[C@H]1CCCC[C@@H]1c1cnc(NC(=O)[C@H]2C[C@H](NC#N)C2)s1 [Compound 1-23, (1r,3r)-3-(cyanoamino)-N-{5-[(1S,2S)-2-methylcyclohexyl]-1,3-thiazol-2-yl}cyclobutane-1-carboxamide] showed an IC50 of less than 0.1 µM. In the case of C[C@@H]1CCCC[C@H]1c1cnc(NC(=O)[C@H]2C[C@H](NC#N)C2)s1 [Compound 1-24, (1r,3r)-3-(cyanoamino)-N-{5-[(1R,2R)-2-methylcyclohexyl]-1,3-thiazol-2-yl}cyclobutane-1-carboxamide], the IC50 is reported as less than 0.1 µM. With N#CN[C@H]1C[C@H](C(=O)Nc2nc(C3CC3)c(C3CCCCC3)s2)C1 [Compound 1-25, (1r,3r)-3-(cyanoamino)-N-(5-cyclohexyl-4-cyclopropyl-1,3-thiazol-2-yl)cyclobutane-1-carboxamide] the IC50 was less than 0.1 µM. With N#CN[C@H]1C[C@H](C(=O)Nc2nc(-c3cnn(C4CC4)c3)c(C3CCCCC3)s2)C1 [Compound 1-26, (1r,3r)-3-(cyanoamino)-N-[5-cyclohexyl-4-(1-cyclopropyl-1H-pyrazol-4-yl)-1,3-thiazol-2-yl]cyclobutane-1-carboxamide] the IC50 was less than 0.1 µM. N#CN[C@H]1C[C@H](C(=O)Nc2cc(C(F)(F)F)ccn2)C1 [Compound 1-27, (1r,3r)-3-(cyanoamino)-N-[4-(trifluoro-methyl)pyridin-2-yl]cyclobutane-1-carboxamide] was tested, and the IC50 was 0.1 to 1 µM. N#CN[C@H]1C[C@H](C(=O)Nc2ncc([C@@H]3CCCCO3)s2)C1 [Compound 1-28, (1r,3r)-3-(cyanoamino)-N-{5-[(2S)-oxan-2-yl]-1,3-thiazol-2-yl}cyclobutane-1-carboxamide] was tested, and the IC50 was 1 to 10 µM. Work on Cc1nc(NC(=O)[C@H]2C[C@H](NC#N)C2)sc1C1CCCCC1 [Compound 1-29, (1r,3r)-3-(cyanoamino)-N-(5-cyclohexyl-4-methyl-1,3-thiazol-2-yl)cyclobutane-1-carboxamide] yielded an IC50 of less than 0.1 µM. Work on Cn1nc(NC(=O)[C@H]2C[C@H](NC#N)C2)cc1C1CCCCC1 [Compound 1-30, (1r,3r)-3-(cyanoamino)-N-(5-cyclohexyl-1-methyl-1H-pyrazol-3-yl)cyclobutane-1-carboxamide] yielded an IC50 of 0.1 to 1 µM. With N#CN[C@H]1C[C@H](C(=O)Nc2nc(C(F)(F)F)c(C3CCCCC3)s2)C1 [Compound 1-31, (1r,3r)-3-(cyanoamino)-N-[5-cyclohexyl-4-(trifluoromethyl)-1,3-thiazol-2-yl]cyclobutane-1-carboxamide] the IC50 was less than 0.1 µM. With N#CN[C@H]1C[C@H](C(=O)Nc2ncc([C@H]3CCCC[C@H]3C(F)(F)F)s2)C1 [Compound 1-32, (1r,3r)-3-(cyanoamino)-N-{5-[(1S,2R)-2-(trifluoromethyl)cyclo-hexyl]-1,3-thiazol-2-yl}cyclobutane-1-carboxamide] the IC50 was 0.1 to 1 µM. N#CN[C@H]1C[C@H](C(=O)Nc2ncc([C@@H]3CCCC[C@@H]3C(F)(F)F)s2)C1 [Compound 1-33, (1r,3r)-3-(cyanoamino)-N-{5-[(1R,2S)-2-(trifluoromethyl)cyclo-hexyl]-1,3-thiazol-2-yl}cyclobutane-1-carboxamide] was tested, and the IC50 was 0.1 to 1 µM. For N#CN[C@H]1C[C@H](C(=O)Nc2ncc([C@H]3CCCC[C@@H]3C(F)(F)F)s2)C1 [Compound 1-34, (1r,3r)-3-(cyanoamino)-N-{5-[(1S,2S)-2-(trifluoromethyl)cyclo-hexyl]-1,3-thiazol-2-yl}cyclobutane-1-carboxamide], the IC50 was 0.1 to 1 µM. N#CN[C@H]1C[C@H](C(=O)Nc2nc(Cl)c(C3CC3)s2)C1 [Compound 1-36, (1r,3r)-N-(4-chloro-5-cyclopropyl-1,3-thiazol-2-yl)-3-(cyanoamino)cyclo-butane-1-carboxamide] gave an IC50 of less than 0.1 µM. With N#CN[C@H]1C[C@H](C(=O)Nc2ncc([C@@H]3CC4CCC3CC4)s2)C1 [Compound 1-37, (1r,3r)-N-{5-[(2R)-bicyclo[2.2.2]octan-2-yl]-1,3-thiazol-2-yl}-3-(cyanoamino)cyclo-butane-1-carboxamide] the IC50 was less than 0.1 µM.
